ChEMBL document CHEMBL3880440, “Antagonists of the toll-like receptor 1/2 complex” (2014)
Active and inactive are the calls of the source. No cut-off for these calls is given here.

Assays:
[1] = target: T1, Toll-like receptor 1/2 (Mus musculus) (UniProt Q9QUN7+Q9EPQ1); assay: Antagonist activity at TLR1/2 in mouse RAW264.7 cells assessed as inhibition of Pam3CSK4-induced receptor activation by measuring NO production at 3 uM after 24 hrs; format: cell-based
[2] = Cytotoxicity against mouse RAW264.7 cells assessed as decrease in cell viability at 3 uM by MTT assay; format: cell-based; details: raw264.7, 3 µM
Toll-like receptor 1/2 = Toll-like receptor 1/2 (Mus musculus, UniProt Q9EPQ1+Q9QUN7); assay: (§1) Antagonist activity at TLR1/2 in mouse RAW264.7 cells assessed as inhibition of Pam3CSK4-induced receptor activation by measuring NO production after 24 hrs; format: cell-based
[3] = target: T1, Toll-like receptor 1/2 (Mus musculus); assay: as §1; format: cell-based
[4] = Cytotoxicity against mouse RAW264.7 cells assessed as decrease in cell viability at 8 uM by MTT assay; format: cell-based; details: raw264.7, 8 µM
RAW264.7 [5] = assay: Inhibition of Pam3CSK4-induced IL-1beta production in mouse RAW264.7 cells at 8 uM after 24 hrs by ELISA; format: functional, cell-based
RAW264.7 [6] = assay: Inhibition of Pam3CSK4-induced TNF-alpha production in mouse RAW264.7 cells at 8 uM after 24 hrs by ELISA; format: functional, cell-based
[7] = target: Toll-like receptor 1/2 (Homo sapiens) (UniProt O60603+Q15399); assay: Antagonist activity at TLR1/2 in primary microglial cells (unknown origin) assessed as reduction in Pam3CSK4-induced IL-1beta mRNA expression level after 2 hrs; format: cell-based
[8] = Antiinflammatory activity in hippocampus (unknown origin) assessed as inhibition of Pam3CSK4-induced IL-1beta mRNA expression level at 5 to 50 ng coadministered with Pam3CSK4 via intra-cisterna magna measured after 2 hrs by RT-PCR analysis; format: functional
[9] = Antiinflammatory activity in hippocampus (unknown origin) assessed as inhibition of Pam3CSK4-induced TNF-alpha mRNA expression level at 5 to 50 ng coadministered with Pam3CSK4 via intra-cisterna magna measured after 2 hrs by RT-PCR analysis; format: functional
[10] = Antiinflammatory activity in hippocampus (unknown origin) assessed as inhibition of Pam3CSK4-induced IL-6 mRNA expression level at 5 to 50 ng coadministered with Pam3CSK4 via intra-cisterna magna measured after 2 hrs by RT-PCR analysis; format: functional

Sequence of Toll-like receptor 1/2 (Q9QUN7 whole entry): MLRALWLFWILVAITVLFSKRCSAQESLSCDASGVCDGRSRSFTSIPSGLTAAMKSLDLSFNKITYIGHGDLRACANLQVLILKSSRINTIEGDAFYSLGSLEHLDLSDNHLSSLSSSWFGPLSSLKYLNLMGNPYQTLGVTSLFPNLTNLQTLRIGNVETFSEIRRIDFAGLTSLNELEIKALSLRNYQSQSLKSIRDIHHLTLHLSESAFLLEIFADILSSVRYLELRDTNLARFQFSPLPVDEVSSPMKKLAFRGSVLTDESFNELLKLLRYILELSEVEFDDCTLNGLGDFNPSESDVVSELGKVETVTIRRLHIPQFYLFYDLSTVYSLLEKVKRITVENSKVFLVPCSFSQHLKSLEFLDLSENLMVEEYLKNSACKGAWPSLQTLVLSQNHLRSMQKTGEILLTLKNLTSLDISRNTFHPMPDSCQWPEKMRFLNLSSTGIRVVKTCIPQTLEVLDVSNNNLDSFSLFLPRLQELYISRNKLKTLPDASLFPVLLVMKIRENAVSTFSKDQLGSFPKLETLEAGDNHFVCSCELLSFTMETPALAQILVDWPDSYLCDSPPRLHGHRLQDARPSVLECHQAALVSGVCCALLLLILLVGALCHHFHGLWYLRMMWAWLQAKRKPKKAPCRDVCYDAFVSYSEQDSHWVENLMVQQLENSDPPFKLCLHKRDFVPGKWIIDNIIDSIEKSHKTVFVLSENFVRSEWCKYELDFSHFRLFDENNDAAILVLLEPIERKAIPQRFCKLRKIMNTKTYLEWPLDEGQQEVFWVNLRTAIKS
Sequence of Toll-like receptor 1/2 (Q9EPQ1 whole entry): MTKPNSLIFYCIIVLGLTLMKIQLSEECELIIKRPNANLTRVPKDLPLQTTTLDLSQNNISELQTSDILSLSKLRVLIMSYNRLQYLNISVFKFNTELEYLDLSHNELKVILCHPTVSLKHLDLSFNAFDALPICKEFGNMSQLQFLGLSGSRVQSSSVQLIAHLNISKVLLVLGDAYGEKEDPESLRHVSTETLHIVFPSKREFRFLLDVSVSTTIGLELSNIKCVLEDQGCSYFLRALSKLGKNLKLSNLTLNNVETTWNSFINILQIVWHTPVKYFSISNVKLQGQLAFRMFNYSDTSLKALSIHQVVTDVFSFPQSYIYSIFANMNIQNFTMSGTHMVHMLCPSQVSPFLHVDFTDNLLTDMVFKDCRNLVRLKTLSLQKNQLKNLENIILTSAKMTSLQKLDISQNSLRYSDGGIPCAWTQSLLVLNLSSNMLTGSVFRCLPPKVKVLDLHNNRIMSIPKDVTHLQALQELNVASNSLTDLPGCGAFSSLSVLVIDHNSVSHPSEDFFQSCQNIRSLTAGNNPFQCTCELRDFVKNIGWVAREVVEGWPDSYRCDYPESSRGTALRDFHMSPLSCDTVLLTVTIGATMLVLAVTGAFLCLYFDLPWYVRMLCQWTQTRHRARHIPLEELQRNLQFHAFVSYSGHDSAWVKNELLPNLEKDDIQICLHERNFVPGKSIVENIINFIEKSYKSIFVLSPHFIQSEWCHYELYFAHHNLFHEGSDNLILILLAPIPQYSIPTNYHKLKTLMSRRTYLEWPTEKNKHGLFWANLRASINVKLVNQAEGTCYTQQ

| Compound | inhibition [1] | Activity [2] | IC50 (Toll-like receptor 1/2) | further results |
| --- | --- | --- | --- | --- |
| O=C(Nc1ccc(Cl)c(Cl)c1)Nc1ccccc1O | > 70% | Non-Toxic | – | – |
| CN1CCN(C(=O)/C=C/c2ccc([N+](=O)[O-])o2)CC1 | > 70% | Non-Toxic | – | – |
| CC(=O)/C=C/Nc1ccccc1O | > 70% | Non-Toxic | – | – |
| COC(=O)c1cc(O)c(=O)c2c(O)c(O)ccc2c1 [METHYL 7-DESHYDROXYPYROGALLIN-4-CARBOXYLATE] | – | – | 9.01 µM | – |
| O=c1c(O)cccc2cc(O)c(O)c(O)c12 [PURPUROGALLIN] | > 70% | Non-Toxic | – | – |
| O=C(O)c1cc(O)c(=O)c2c(O)c(O)ccc2c1 [7-DESHYDROXYPYROGALLIN-4-CARBOXYLIC ACID] | – | – | 16.5 µM | – |
| COc1cccc(NC(S)=Nc2ccc(O)cc2)c1 | > 70% | Non-Toxic | – | – |
| CCCCCCCCCCOC(=O)c1cc(O)c(=O)c2c(O)c(O)c(OC)cc2c1 | – | – | 1.01 µM | – |
| COc1cc2cccc(OC)c(=O)c2c(O)c1OC | – | – | 11.7 µM | – |
| CC(=O)Oc1cc2c(c(OC(C)=O)c1OC(C)=O)C(=O)C1(OC(C)=O)C=CC2C2C(=O)OC(=O)C21 (stereo not given) | – | – | 14.8 µM | – |
| CCCCOC(=O)c1cc(O)c(=O)c2c(O)c(O)c(OC)cc2c1 | – | – | 2.83 µM | – |
| O=[N+]([O-])c1cc(Cl)cc2c1nc(NCCO)c1ccccc12 | > 70% | Non-Toxic | – | – |
| CC(=O)Oc1cc2cccc(OC(C)=O)c(=O)c2c(OC(C)=O)c1OC(C)=O | – | – | 2.35 µM | – |
| O=C(/C=C/c1ccc(O)c(O)c1)c1ccccc1O | > 70% | Non-Toxic | – | – |
| CCCCCCCCCCCCCCOC(=O)c1cc(O)c(=O)c2c(O)c(O)c(OC)cc2c1 | – | – | 3.24 µM | – |
| CCCCNC(=O)c1cc(O)c(=O)c2c(O)c(O)c(OC)cc2c1 | – | – | 1.26 µM | – |
| CCOC(=O)c1cc(O)c(=O)c2c(O)c(O)c(OC)cc2c1 | – | – | 2.83 µM | – |
| O=c1c(O)cccc2cc(F)c(O)c(O)c12 | – | – | 22.7 µM | – |
| CC(=O)Oc1cc2cccc(OC(C)=O)c(=O)c2c(O)c1OC(C)=O | – | – | 1.42 µM | – |
| Oc1ccc(/N=C/c2c(O)ccc3ccccc23)cc1 | > 70% | Non-Toxic | – | – |
| C=C(C)[C@H]1Cc2c(ccc3c2O[C@@H]2COc4cc(OC)c(OC)cc4[C@@H]2C3=O)O1 [ROTENONE] | > 70% | Non-Toxic | – | – |
| Cc1cc(O)c(O)c2c(=O)c(O)cccc12 | – | – | 3.13 µM | – |
| CC(=O)Oc1cc2cccc(O)c(=O)c2c(O)c1O | – | – | 4.83 µM | – |
| O=c1c(O)cccc2ccc(O)c(O)c12 | – | – | 2.25 µM | – |
| CCCCCCOC(=O)c1cc(O)c(=O)c2c(O)c(O)c(OC)cc2c1 | > 70% | – | – | inhibition [3]: Dose-dependent effect; Activity [4]: Non-Toxic; inhibition (RAW264.7 [5]): Active; inhibition (RAW264.7 [6]): Active; inhibition [7]: Dose-dependent effect; inhibition [8]: Active; inhibition [9]: Active; inhibition [10]: Active |
| COc1cc2c(c(OC)c1OC)C(=O)C1(OC)C=CC2C2C(=O)OC(=O)C21 (stereo not given) | – | – | 74.6 µM | – |
| COc1cc2cc(C(=O)OC(C)C)cc(O)c(=O)c2c(O)c1O | – | – | 2.47 µM | – |
| CCCCCCCCOC(=O)c1cc(O)c(=O)c2c(O)c(O)c(OC)cc2c1 | – | – | 0.72 µM | – |
